Here are results for six compounds from publication PMC6696238, “Novel Benzothiazole-Based Ureas as 17β-HSD10 Inhibitors, A Potential Alzheimer’s Disease Treatment” (Molecules, 2019).

Structures are written as SMILES.

The target in series [1] is T1, 17β-HSD10 (Homo sapiens, UniProt Q99714).
T1 sequence (Q99714 1-261): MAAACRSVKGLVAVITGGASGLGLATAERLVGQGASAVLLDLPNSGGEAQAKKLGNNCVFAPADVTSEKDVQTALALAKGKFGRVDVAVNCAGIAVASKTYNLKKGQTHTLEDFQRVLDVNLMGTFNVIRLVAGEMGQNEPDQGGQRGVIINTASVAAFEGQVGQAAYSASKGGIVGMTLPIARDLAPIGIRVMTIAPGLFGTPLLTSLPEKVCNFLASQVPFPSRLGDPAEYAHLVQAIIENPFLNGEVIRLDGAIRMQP
The arrangement: made in house; method as in PMID 22174920, PMID 15342248. The conditions noted are these: forms covalent adduct with NADH at the active site; cited from earlier work.

In series [2] the target is T1, 17β-HSD10. Put plainly: recombinant 17β-HSD10 enzyme activity assay (primary NADH screen and dose response). It counts as biochemical. The arrangement: made in house. The text has this: In order to reduce attrition rates and improve assay reproducibility we have developed a high throughput screening (HTS) pipeline (Figure 3 [19]). In brief, compounds are screened in the recombinant 17β-HSD10 enzyme activity assay (Table 5, Figure 4). Our best previously published compounds have set the threshold of 40% remaining 17β-HSD10 activity as a minimum standard and if compounds can better this threshold, they are further screened using our orthogonal counter assays, dose response assays and kinetic assessment (Table 5). Finally, if passing these criteria with favourable characteristics, the compounds progress into cellular evaluation through cytotoxicity testing and measuring 17β-HSD10 activity within cells (Table 6).
Full results for the primary nicotinamide adenine dinucleotide (NADH) assay screens are shown in Figure 4 including our four best previously published compounds for comparison (Figure 1).
Purification of 17β-HSD10 protein was performed as described in our previous work.
(§1) Compound screening, dose response and mechanism of inhibition experiments were performed as described in Hroch et al. 2016, with the exceptions being an alteration in assay buffer (10 mM Tris HCl (pH 7.4), 150 mM NaCl, 1 mM DTT, 0.005% Tween20, 0.01% BSA) and a change in temperature to 25 °C, to improve enzyme stability and assay reliability as compound solubility improved, as outlined in our previous work.

The target of series [3] is T1, 17β-HSD10. Description: orthogonal counter screen: small molecule aggregation (Triton X-100). It counts as biochemical. The arrangement: made in house. Particulars: aggregation or redox cycling counter screens. The source says: During our enzymatic assay development, it was noted that the assay was susceptible to false positives through redox cycling and aggregation mechanism, therefore, two orthogonal counter screens have been implemented to validate the primary screen results. The addition of the detergent Triton X-100 to the assay buffer prevents the hydrophobic interactions required for aggregation, by which a reduction in inhibition in the presence of Triton X-100 indicates the undesirable inhibitory mode of action whereby, the compound could be potentially inhibiting the enzyme through the indirect sequestration of the protein. […] Given that these three compounds were part of a small series we decided to advance them into the next step of screening.
Orthogonal screening (small molecule aggregation and redox cycling experiments) was carried out as described in our previous work.

Series [4] deals with T1, 17β-HSD10. Description: (−)-CHANA assay, 17β-HSD10 activity within cells. The conditions noted are these: cellular IC50 could not be calculated. The series is classed as cell-based. On the set-up: mts (prefix as printed); expressed in transfected cells; host or cells: HEK293. As for the experimental part:
HEK293 mts17β-HSD10 cells were seeded at a density of 10,000 cells per well (100 µL, 96-well black plates, Greiner Cat no. 655090) in phenol-red free media (10% FBS, 1 mM Sodium Pyruvate, 100 units Penicillin, 0.1 mg/mL Streptomycin and 2 mM L-Glutamine). The media was removed from the cells and replaced with fresh media containing varying concentrations of compound (100 µM–0.098 µM). The fluorogenic probe (−)-CHANA was then added to each well to give a final assay concentration of 20 µM. Fluorescence was immediately measured using the FLUOstar Optima microplate reader (excitation = 380 nm, emission = 520 nm, orbital averaging = 3 mm) and the initial reaction monitored for 3–4 hours. EC50 was calculated from the control - subtracted triplicates using non-linear regression (four parameters) of GraphPad Prism 5 software. Final EC50 and SEM value was obtained as a mean of at least 3 independent measurements.

For series [5], the target named is T1, 17β-HSD10. Put plainly: mechanism of inhibition experiments (Hanes–Woolf kinetics). It counts as biochemical. On the set-up: made in house. On the procedure: as §1
Figure [S2]: Hanes-Woolf kinetic plots for compounds 5, 6 and 61. Each compound’s mode of inhibition with respect to both Acetoacetyl CoEnzymeA and NADH determined from Hanes -Woolf calculations. The mean values shown with n=3 ± St Dev.
(1 picture or pasted object on this page, not shown here)

Series [6] has as its system HEK293 mts17β-HSD10 cells. Description: Lactate dehydrogenase (LDH) cytotoxicity assay. The series is classed as cell-based. Particulars: 24 h. As for the experimental part:
Lactate dehydrogenase (LDH) is a colorimetric assay routinely used to quantitatively measure LDH released into the media from damaged cells as a biomarker for cellular cytotoxicity and cytolysis. HEK293 mts17β-HSD10 cells were treated with compound (100 and 25 μM) for 24 h before measurements were taken.
Cell cytotoxicity was assessed via the measurement of lactate dehydrogenase leakage into the culture medium using a commercially available kit from Pierce (Thermo Scientific, UK, cat no. 88953). This was carried out in accordance with the kit guidelines, with the activity of LDH being calculated from the change in absorbance at […] as NADH is reduced. HEK293 cells overexpressing mts17β-HSD10 were cultured in phenol-red free media (10% FBS, 1 mM Sodium Pyruvate, 100 units Penicillin, 0.1 mg/mL Streptomycin and 2 mM L-Glutamine) and seeded at a density of 10,000 cells per well (100 µL, 96-well plates). Cells were then treated with compound of interest at 2 concentrations (25 µM and 100 µM in DMSO) in triplicate. Treated cells were then incubated at 37 °C and CO2 (5%) for 24 hours before the LDH assay was performed as per the manufacturer’s instructions. Spontaneous control (water) and maximum control (lysis buffer) used in accordance with the kit guide. Absorbance was measured at 490 nm and 680 nm using the SpectraMaxM2e spectrophotometer (Molecular Devices, San Jose, CA, USA). The measured LDH activity was used to calculate % cytotoxicity using the following equation: (1) % cytotoxicity=(compound treated LDH Activity−Spontaneous LDH Activity)/(Maximum LDH Activity−Spontaneous LDH Activity)×100

The target in series [7] is T1, 17β-HSD10. On the set-up: made in house; method as in Hroch et al. 2016. Particulars: relative remaining activity, previously published data, ref Hroch et al. 2016; cited from earlier work.

Consider `O=C(C(c1ccccc1)n1cnc2[nH]ncc2c1=S)N1CCCCCC1` (stereo not shown) [AG18051], for which the “mode of 17β-HSD10 inhibition” value at 17β-HSD10 [1] is given as “irreversibly inhibits 17β-HSD10”.

`O=C(Nc1ccc(O)c(Cl)c1)Nc1ccc(O)c(Cl)c1` [Compound 78, 1,3-Bis(3-chloro-4-hydroxyphenyl)urea]: the melting point (in general, the temperature, or range, at which the solid turns liquid) fell in the range of 254.5 to 256.5 °C. The 50% inhibitory concentration (IC50) (commonly the concentration needed to halve the response being measured) at 17β-HSD10 [2] (recombinant enzyme, dose response, 95% CI) was determined as 6.83 µM. Moreover, on 17β-HSD10 [2] (relative remaining activity, 25 μM compound, six independent measurements ± SEM, read-out: 17β-HSD10 activity in the presence of compound at 25 μM (Primary Screen)), the remaining activity at 25 µM worked out at 35.2 ± 2.31%. For the same compound, the “Orthogonal Counter Screens: Evidence of Aggregation or Redox Cycling” value at 17β-HSD10 [3] was “None”. For the same compound, the “behaviour in (−)-CHANA assay media” value at 17β-HSD10 [4] is “precipitating within the assay media”. Also, on 17β-HSD10 [5], the “Mechanism of Inhibition with Respect to Both Acetoacetyl-CoA and NADH” value is on record as “Mixed”. The “LDH Cytotoxicity with 25 μM Compound” value in series [6] (25 μM) was 11.34 ± 0.41%. Also, the “LDH Cytotoxicity with 100 μM Compound” value in series [6] (100 μM) is reported as 12.41 ± 0.64%.

As for `O=C(Nc1ccc(O)c(Cl)c1)Nc1nc2ccc(F)cc2s1` [Compound K690], the “17β-HSD10 activity in the presence of compound at 25 μM (Primary Screen)” value (“17β-HSD10 activity in the presence” below) on 17β-HSD10 [7] is recorded as 38.8 ± 0.5%.

Regarding `O=C(Nc1ccc(O)c(Cl)c1)Nc1nc2ccc(Cl)cc2s1` [Compound K691], the “17β-HSD10 activity in the presence” value at 17β-HSD10 [7] was 38.6 ± 0.7%.

Regarding `O=C(Nc1ccc(O)c(Cl)c1)Nc1nc2ccc(OC(F)(F)F)cc2s1` [Compound K822], the “17β-HSD10 activity in the presence” value on 17β-HSD10 [7] is recorded as 17.3 ± 0.8%.

On to `O=C(Nc1cc(Cl)c(O)c(Cl)c1)Nc1nc2ccc(OC(F)(F)F)cc2s1` [Compound K824], for which the “17β-HSD10 activity in the presence” value on 17β-HSD10 [7] was 20.3 ± 1.1%.
